Legend:
[1] = molecular target: T1, Acetylcholinesterase and butyrylcholinesterase (AChE and BChE) (Rattus norvegicus) (UniProt P37136+Q9JKC1); assay: Selectivity ratio of IC50 for rat plasma BChE to IC50 for rat brain AChE; format: cell-free
Acetylcholinesterase = molecular target: T2, Acetylcholinesterase (Rattus norvegicus, UniProt P37136); assay: Inhibition of rat brain AChE by Ellman's method
T2 sequence (P37136 whole entry): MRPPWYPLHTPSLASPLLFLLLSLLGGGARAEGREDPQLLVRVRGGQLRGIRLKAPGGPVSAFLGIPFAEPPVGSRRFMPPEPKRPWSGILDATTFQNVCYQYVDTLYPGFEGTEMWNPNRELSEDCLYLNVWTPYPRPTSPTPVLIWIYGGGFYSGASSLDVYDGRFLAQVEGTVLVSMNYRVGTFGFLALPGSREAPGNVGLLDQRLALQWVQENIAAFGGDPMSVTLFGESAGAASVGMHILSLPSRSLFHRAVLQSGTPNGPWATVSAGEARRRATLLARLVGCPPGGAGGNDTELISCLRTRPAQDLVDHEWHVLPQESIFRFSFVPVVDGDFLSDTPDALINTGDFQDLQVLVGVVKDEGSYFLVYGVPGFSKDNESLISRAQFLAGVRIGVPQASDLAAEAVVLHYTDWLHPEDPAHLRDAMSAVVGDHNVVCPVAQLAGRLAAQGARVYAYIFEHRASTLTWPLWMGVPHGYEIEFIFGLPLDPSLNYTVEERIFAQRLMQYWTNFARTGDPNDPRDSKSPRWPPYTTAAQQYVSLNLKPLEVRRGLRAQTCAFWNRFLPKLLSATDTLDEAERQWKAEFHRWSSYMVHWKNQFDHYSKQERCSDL

Butyrylcholinesterase = Butyrylcholinesterase (Rattus norvegicus, UniProt Q9JKC1); assay: Inhibition of rat plasma BChE by Ellman's method; format: cell-free
Sequence of Butyrylcholinesterase (Q9JKC1 whole entry): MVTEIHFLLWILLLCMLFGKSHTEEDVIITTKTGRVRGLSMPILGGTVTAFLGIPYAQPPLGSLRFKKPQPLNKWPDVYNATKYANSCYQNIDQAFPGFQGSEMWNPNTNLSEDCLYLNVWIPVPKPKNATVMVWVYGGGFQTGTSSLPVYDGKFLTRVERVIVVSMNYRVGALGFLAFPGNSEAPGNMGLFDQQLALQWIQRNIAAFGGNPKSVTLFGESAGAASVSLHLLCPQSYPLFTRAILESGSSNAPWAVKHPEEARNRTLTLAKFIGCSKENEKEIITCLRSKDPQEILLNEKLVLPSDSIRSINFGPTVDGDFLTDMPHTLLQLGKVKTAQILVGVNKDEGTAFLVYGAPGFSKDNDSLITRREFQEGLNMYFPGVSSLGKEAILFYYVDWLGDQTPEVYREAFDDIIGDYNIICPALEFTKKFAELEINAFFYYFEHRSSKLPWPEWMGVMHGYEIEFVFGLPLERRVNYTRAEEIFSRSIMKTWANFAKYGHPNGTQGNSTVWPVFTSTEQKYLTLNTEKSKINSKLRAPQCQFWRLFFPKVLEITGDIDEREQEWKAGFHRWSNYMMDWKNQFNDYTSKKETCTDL

[2] = molecular target: T1, Acetylcholinesterase and butyrylcholinesterase (AChE and BChE) (Rattus norvegicus); assay: Selectivity ratio of IC50 for rat brain AChE to IC50 rat plasma BChE; format: cell-free

T1 sequence (Q9JKC1 1-597, one chain of several): as the sequence (Q9JKC1 whole entry) above

CN1CC[C@@]2(C)c3cc(OC(=O)Nc4cccc(Cl)c4)ccc3N(C)[C@@H]12
Ratio IC50 [1]: 3 | IC50 (Acetylcholinesterase): 38.7 nM | IC50 (Butyrylcholinesterase): 105 nM

CNC(=O)Oc1ccc2c(c1)[C@]1(C)CCN(C)[C@@H]1N2C [PHYSOSTIGMINE]
IC50 (Butyrylcholinesterase): 7.6 nM

Cc1ccc(NC(=O)Oc2ccc3c(c2)[C@]2(C)CCN(C)[C@@H]2N3C)cc1Cl
IC50 (Acetylcholinesterase): 7.3 nM | IC50 (Butyrylcholinesterase): 8.5 nM

CN1CC[C@@]2(C)c3cc(OC(=O)NC4CCCCC4)ccc3N(C)[C@@H]12
Ratio IC50 [1]: 174 | IC50 (Acetylcholinesterase): 8.5 nM | IC50 (Butyrylcholinesterase): 1400 nM

CN1CC[C@@]2(C)c3cc(OC(=O)Nc4cccc5ccccc45)ccc3N(C)[C@@H]12
Ratio IC50 [1]: 3 | IC50 (Acetylcholinesterase): 4.2 nM | IC50 (Butyrylcholinesterase): 14.1 nM

CN1CC[C@@]2(C)c3cc(OC(=O)Nc4ccccc4Cl)ccc3N(C)[C@@H]12
Ratio IC50 [2]: 3 | IC50 (Acetylcholinesterase): 264 nM | IC50 (Butyrylcholinesterase): 88.7 nM

Cc1c(Cl)cccc1NC(=O)Oc1ccc2c(c1)[C@]1(C)CCN(C)[C@@H]1N2C
Ratio IC50 [1]: 18 | IC50 (Acetylcholinesterase): 6.4 nM | IC50 (Butyrylcholinesterase): 113 nM

CN1CC[C@@]2(C)c3cc(OC(=O)Nc4ccccc4Br)ccc3N(C)[C@@H]12
IC50 (Acetylcholinesterase): 66.5 nM | IC50 (Butyrylcholinesterase): 39.6 nM

CN1CC[C@@]2(C)c3cc(OC(=O)Nc4cccc(Cl)c4Cl)ccc3N(C)[C@@H]12
Ratio IC50 [1]: 8 | IC50 (Acetylcholinesterase): 66.2 nM | IC50 (Butyrylcholinesterase): 517 nM

CN1CC[C@@]2(C)c3cc(OC(=O)Nc4ccccc4)ccc3N(C)[C@@H]12 [PHENSERINE]
Ratio IC50 [1]: 10 | IC50 (Acetylcholinesterase): 11.9 nM | IC50 (Butyrylcholinesterase): 104 nM

COc1ccc(NC(=O)Oc2ccc3c(c2)[C@]2(C)CCN(C)[C@@H]2N3C)cc1
Ratio IC50 [2]: 5 | IC50 (Acetylcholinesterase): 29.9 nM | IC50 (Butyrylcholinesterase): 5.8 nM

CN1CC[C@@]2(C)c3cc(OC(=O)Nc4cc(Cl)cc(Cl)c4)ccc3N(C)[C@@H]12
Ratio IC50 [1]: 8 | IC50 (Acetylcholinesterase): 113 nM | IC50 (Butyrylcholinesterase): 935 nM

CN1CC[C@@]2(C)c3cc(OC(=O)Nc4ccc(Br)cc4)ccc3N(C)[C@@H]12
Ratio IC50 [2]: 7 | IC50 (Acetylcholinesterase): 168 nM | IC50 (Butyrylcholinesterase): 14.9 nM

CC(C)c1cccc(C(C)C)c1NC(=O)Oc1ccc2c(c1)[C@]1(C)CCN(C)[C@@H]1N2C
IC50 (Acetylcholinesterase): 735 nM | IC50 (Butyrylcholinesterase): 830 nM

CN1CC[C@@]2(C)c3cc(OC(=O)Nc4cccc(C#N)c4)ccc3N(C)[C@@H]12
Ratio IC50 [1]: 4 | IC50 (Acetylcholinesterase): 442 nM | IC50 (Butyrylcholinesterase): 1020 nM

CN1CC[C@@]2(C)c3cc(OC(=O)Nc4ccc(Cl)cc4)ccc3N(C)[C@@H]12
Ratio IC50 [2]: 15 | IC50 (Acetylcholinesterase): 914 nM | IC50 (Butyrylcholinesterase): 61.3 nM

Reference: ChEMBL document CHEMBL1154973 (Bioorg Med Chem Lett, 2010)
